The source of these data is patent US20130209403A1, “USE OF INHIBITORS OF PHOSPHOLIPASE A2 FOR THE TREATMENT OR PREVENTION OF FLAVIVIRUS INFECTION” (Ruprecht-Karls-Universitaet, priority 2010, published 2013).

Structures are written as SMILES.

The subject of data set [1] is HCV. The conditions noted are these: 20 μm pyrrolidine-2 vs untreated cells, FIG. 7.
Data set [2] has as its system DENV. The conditions noted are these: Huh-7.5 cells, DV-R2A, 0, 5, 10 and 20 μM, added 42 h after transfection. How it is done: This example employs a standard bioassay for determining the effect of the cPLA2α inhibitor pyrrolidine-2 on the production of Huh-7.5 cells transfected with dengue virus RNA DV-R2A. The assay was performed according to standard protocols and materials were purchased from commercial suppliers and used according to respective manuals supplied therewith. Pyrrolidine-2 was added to the cells 42 h after transfection at the indicated final concentrations of 0, 5, 10 and 20 μM.

Data set [3] relates to HCV core protein. As to conditions: lipid droplet fractions; 20 μm pyrrolidine-2 vs untreated cells; FIG. 8A-C. The text has this: Standard ELISA and Western Blot protocols were used for the analysis of lipid droplet fractions of untreated cells and cells treated with 20 μm pyrrolidine-2.
The test system of data set [4] is HCV. As to conditions: Jc1-transfected cells, 0, 5, 10 and 20 μM, added 42 h after transfection. How it is done: This example employs a standard bioassay for determining the effect of the cPLA2α inhibitor pyrrolidine-2 on the production of Jc1-transfected cells. The general assay set up is shown in
FIG. 2. The assay was performed according to standard protocols and materials were purchased from commercial suppliers and used according to respective manuals supplied therewith. Pyrrolidine-2 was added to the cells 42 h after transfection at […] the indicated final concentrations of 0, 5, 10 and 20 μM.

Data set [5] concerns ApoB. As to conditions: Mock- and Jc1-transfected cells; 20 μm pyrrolidine-2; FIG. 9.
Excerpt: (§2) A standard ELISA protocol was employed for assessing the relevance of cPLA2α activity for release of lipoproteins carrying ApoB and ApoE.
Data set [6] deals with DENV. In words: Infectivity of DENV, limiting dilution titration assay.
Excerpt: A standard limiting dilution titration assay was employed for assessing the relevance of cPLA2α activity for release of infectious DENV particles.
The conditions of data set [7]: 20 μm pyrrolidine-2 compared to DMSO; FIG. 5. How it is done:
(§1) The assay was performed according to standard protocols and materials were purchased from commercial suppliers and used according to respective manuals supplied therewith.

Data set [8] relates to HCV. As to conditions: 20 μm pyrrolidine-2 vs untreated cells; FIG. 4B. How it is done: as §1
In data set [9] the test system is ApoE. As to conditions: Mock- and Jc1-transfected cells; 20 μm pyrrolidine-2; FIG. 9.
Excerpt: as §2

In the case of `CC(C)CN(Cc1ccccc1-c1ccccc1)[C@@H]1C[C@@H](CNC(=O)C=Cc2ccc(C=C3SC(=O)NC3=O)cc2)N(C(=O)c2ccccc2C(=O)c2ccc(F)cc2F)C1.Cl` [pyrrolidine-2, N-{(2S,4R)-4-(Biphenyl-2-ylmethyl-isobutyl-amino)-1-[2-(2,4-difluorobenzoyl)-benzoyl]-pyrrolidin-2-ylmethyl}-3-[4-(2,4-dioxothiazolidin-5-ylidenemethyl)-phenyl]acrylamide, HCl], in data set [1], the “lowering of intracellular virus titer” value is on record as “about 10 fold” and the “reduction of extracellular virus titers” value is given as 100 fold. The “RNA replication of DENV” value in [2] (FIG. 11A) was “only slightly affected”. In data set [2] (FIG. 11B), the “release of infectious DENV particles” value is on record as “potently inhibited in a dose-dependent manner”. For the same molecule, the “quantity of lipid droplet associated core protein” value in data set [3] was “reduced”. For the same molecule, the “RNA replication of HCV” value in data set [4] (FIG. 3A) is recorded as “not affected”. Further, the “release of infectious HCV particles” value in data set [4] (FIG. 3B) is given as “potently inhibited in a dose-dependent manner”. Further, the “reduction of the quantity of secreted ApoB” value in data set [5] was “more than 50%”. Further, the “inactivation of released infectious DENV particles” value in data set [6] (particles produced in the absence of the inhibitor, then treated with 20 μm pyrrolidine-2, FIG. 12B) is “does not inactivate released infectious particles”. Besides, the “reduction of the quantity of released infectious DENV particles” value in data set [6] (transfected Huh-7.5 cells treated with 20 μm pyrrolidine-2, FIG. 12A) is “more than 3 orders of magnitude”. In addition, the cytotoxicity result in data set [7] is listed as “did not show any cytotoxicity”. Further, the viral entry entry in [8] is “does not influence viral entry”. The “reduction of the quantity of secreted ApoE” value in data set [9] was “more than 50%”.
